Assay results reported in ChEMBL document CHEMBL4354854, “DNA-Encoded Library Technology-Based Discovery, Lead Optimization, and Prodrug Strategy toward Structurally Unique Indoleamine 2,3-Dioxygenase-1 (IDO1) Inhibitors” (J Med Chem, 2020).
pIC50: −log10 of the molar value. In brackets after ≈: the same amount, converted by molar mass. Blank lines part the entries; values can stand above or below the molecule they belong to. Activity calls are given as the source filed them. The rule behind the calls is not given here.

Experiments:
[1] = Oral bioavailability in Beagle dog at 5 mg/kg administered via gavage using crystalline compound by LC-MS/MS analysis; format: ADME, organism-based, Canis lupus familiaris; conditions: in vivo
[2] = AUC (0 to t) in Beagle dog at 30 mg/kg, po administered via gavage using crystalline compound by LC-MS/MS analysis; format: ADME, organism-based, Canis lupus familiaris; conditions: in vivo
[3] = Oral bioavailability in Han Wistar rat at 30 mg/kg administered via gavage using crystalline compound by LC-MS/MS analysis; format: ADME, organism-based; conditions: in vivo
[4] = Clearance in rat relative to hepatic blood flow; format: ADME; conditions: in vivo
[5] = Cytotoxicity against human PBMC cells assessed as reduction in cell viability measured after 48 hrs by Celltiter-glo luminescence assay; format: cell-based
[6] = Clearance in monkey; format: ADME, Macaca mulatta; conditions: rhesus monkey, in vivo
[7] = Oral bioavailability in Han Wistar rat at 100 mg/kg administered via gavage using crystalline compound by LC-MS/MS analysis; format: ADME, organism-based; conditions: in vivo
[8] = Clearance in monkey relative to hepatic blood flow; format: ADME, Macaca mulatta; conditions: rhesus monkey, in vivo
[9] = Clearance in mouse; format: ADME, organism-based; conditions: in vivo
[10] = Clearance in mouse relative to hepatic blood flow; format: ADME; conditions: in vivo
[11] = Solubility of the compound in fasted state simulated intestinal fluid using crystalline compound; format: physicochemical
[12] = Oral bioavailability in Han Wistar rat at 5 mg/kg administered via gavage using crystalline compound by LC-MS/MS analysis; format: ADME, organism-based; conditions: in vivo
[13] = Clearance in rat; format: ADME; conditions: in vivo
[14] = Oral bioavailability in Beagle dog at 30 mg/kg administered via gavage using crystalline compound by LC-MS/MS analysis; format: ADME, organism-based, Canis lupus familiaris; conditions: in vivo
[15] = target: T1, Indoleamine 2,3-dioxygenase 1 (Homo sapiens, UniProt P14902); assay: Binding affinity to IDO1 holoenzyme (unknown origin) assessed as red shift in soret band at 10 uM measured after 2 hrs by UV-vis spectra analysis
Target sequence in this assay (P14902 whole entry, looked up): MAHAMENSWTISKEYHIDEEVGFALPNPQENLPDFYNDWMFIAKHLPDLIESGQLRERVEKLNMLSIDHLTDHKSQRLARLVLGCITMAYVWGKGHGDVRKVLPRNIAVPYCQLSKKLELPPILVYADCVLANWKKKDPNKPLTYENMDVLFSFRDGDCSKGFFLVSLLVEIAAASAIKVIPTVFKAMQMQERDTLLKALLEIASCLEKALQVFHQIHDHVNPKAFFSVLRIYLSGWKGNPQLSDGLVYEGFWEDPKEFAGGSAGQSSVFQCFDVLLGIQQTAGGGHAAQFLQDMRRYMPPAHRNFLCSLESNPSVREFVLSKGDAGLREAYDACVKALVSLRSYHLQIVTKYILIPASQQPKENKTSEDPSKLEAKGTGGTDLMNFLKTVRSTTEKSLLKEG

[16] = target: T1, Indoleamine 2,3-dioxygenase 1
Target sequence in this assay (P14902 whole entry): as the sequence (P14902 whole entry, looked up) above
Description: Inhibition of IDO1 in IFN-gamma/LPS stimulated human PBMC assessed as reduction in kynurenine production after 48 hrs by RapidFire MS assay

[17] = Oral bioavailability in Beagle dog assessed as (S)-Ethyl 6-Bromo-4-(1H-indazole-7-carboxamido)spiro-[chroman-2,4'-piperidine]-1'-carboxylate level at 89 mg/kg equiv of parent compound administered via gavage using crystalline compound by LC-MS/MS analysis; format: ADME, organism-based, Canis lupus familiaris; conditions: in vivo
Homo sapiens = assay: In vivo inhibition of IDO1 in human at 60 mg, po bid measured after 24 hrs relative to control; format: functional
[18] = Mutagenicity in Salmonella typhimurium in presence of S9 fraction by Ames test; conditions: salmonella enterica subsp. enterica serovar typhimurium
[19] = Oral bioavailability in Beagle dog assessed as (S)-Ethyl 6-Bromo-4-(1H-indazole-7-carboxamido)spiro-[chroman-2,4'-piperidine]-1'-carboxylate level at 3 mg/kg equiv of parent compound administered via gavage using crystalline compound by LC-MS/MS analysis; format: ADME, organism-based, Canis lupus familiaris; conditions: in vivo
[20] = Mutagenicity in Salmonella typhimurium in absence of S9 fraction by Ames test; format: toxicity; conditions: salmonella enterica subsp. enterica serovar typhimurium
[21] = Oral bioavailability in Beagle dog assessed as (S)-Ethyl 6-Bromo-4-(1H-indazole-7-carboxamido)spiro-[chroman-2,4'-piperidine]-1'-carboxylate level at 30 mg/kg equiv of parent compound administered via gavage using crystalline compound by LC-MS/MS analysis; format: ADME, organism-based, Canis lupus familiaris; conditions: in vivo
[22] = AUC (0 to t) in Beagle dog assessed as (S)-Ethyl 6-Bromo-4-(1H-indazole-7-carboxamido)spiro-[chroman-2,4'-piperidine]-1'-carboxylate level at 30 mg/kg equiv of parent compound administered via oral gavage using crystalline compound by LC-MS/MS analysis; format: ADME, organism-based, Canis lupus familiaris; conditions: in vivo
[23] = Oral bioavailability in CD-1 mouse assessed as (S)-Ethyl 6-Bromo-4-(1H-indazole-7-carboxamido)spiro-[chroman-2,4'-piperidine]-1'-carboxylate level at 30 mg/kg equiv of parent compound administered via gavage using crystalline compound by LC-MS/MS analysis; format: ADME, organism-based; conditions: in vivo
[24] = Oral bioavailability in CD-1 mouse assessed as (S)-Ethyl 6-Bromo-4-(1H-indazole-7-carboxamido)spiro-[chroman-2,4'-piperidine]-1'-carboxylate level at 3 mg/kg equiv of parent compound administered via gavage using crystalline compound by LC-MS/MS analysis; format: ADME, organism-based; conditions: in vivo
[25] = Oral bioavailability in CD-1 mouse assessed as (S)-Ethyl 6-Bromo-4-(1H-indazole-7-carboxamido)spiro-[chroman-2,4'-piperidine]-1'-carboxylate level at 89 mg/kg equiv of parent compound administered via gavage using crystalline compound by LC-MS/MS analysis; format: ADME, organism-based; conditions: in vivo
[26] = Oral bioavailability in CD-1 mouse assessed as (S)-Ethyl 6-Bromo-4-(1H-indazole-7-carboxamido)spiro-[chroman-2,4'-piperidine]-1'-carboxylate level at 267 mg/kg equiv of parent compound administered via gavage using crystalline compound by LC-MS/MS analysis; format: ADME, organism-based; conditions: in vivo
[27] = Oral bioavailability in Han Wistar rat assessed as (S)-Ethyl 6-Bromo-4-(1H-indazole-7-carboxamido)spiro-[chroman-2,4'-piperidine]-1'-carboxylate level at 4 mg/kg equiv of parent compound administered via gavage using amorphous compound by LC-MS/MS analysis; format: ADME, organism-based; conditions: in vivo
[28] = Solubility of the compound in fasted state simulated intestinal fluid using amorphous compound; format: physicochemical
[29] = Oral bioavailability in Han Wistar rat assessed as (S)-Ethyl 6-Bromo-4-(1H-indazole-7-carboxamido)spiro-[chroman-2,4'-piperidine]-1'-carboxylate level at 82 mg/kg equiv of parent compound administered via gavage using amorphous compound by LC-MS/MS analysis; format: ADME, organism-based; conditions: in vivo
[30] = Oral bioavailability in Han Wistar rat assessed as (S)-Ethyl 6-Bromo-4-(1H-indazole-7-carboxamido)spiro-[chroman-2,4'-piperidine]-1'-carboxylate level at 25 mg/kg equiv of parent compound administered via gavage using amorphous compound by LC-MS/MS analysis; format: ADME, organism-based; conditions: in vivo

- bioavailability [1]: 7%
- AUC(0-t) [2]: 44.7 ng·h/mL
- bioavailability [3]: 6%
- CL [4]: 15%
- clearance [6]: 6.1 mL/min/kg
- bioavailability [7]: 3%
- CL [8]: 14%
- clearance [9]: 10 mL/min/kg
- CL [10]: 8%
- solubility thermodynamic [11]: 18.4 µg/mL (≈ 35.8 µM)
- bioavailability [12]: 11%
- clearance [13]: 11.7 mL/min/kg
- bioavailability [14]: 0.2%
SMILES: CCOC(=O)N1CCC2(CC1)C[C@H](NC(=O)c1cccc3cn[nH]c13)c1cc(Br)ccc1O2
- CC50 at 48 h [5]: > 10 µM

SMILES: CC(C)(C)OC(=O)N1CCC2(CC1)C[C@H](NC(=O)c1cccc3cn[nH]c13)c1cc(Br)ccc1O2
- CC50 at 48 h [5]: > 10 µM

- Activity [15]: inactive
SMILES: CC(C)CN(CC(C)C)c1ccc([C@H](C)CC(=O)O)cc1Nc1nc(C(F)(F)F)ns1

SMILES: CCOC(=O)N1CCC2(CC1)C[C@H](NC(=O)c1cccc3cn[nH]c13)c1cc(CC)ccc1O2
- CC50 at 48 h [5]: > 10 µM

- pIC50 [16]: 8.37
SMILES: COC(=O)N1CCC2(CC1)C[C@H](NC(=O)c1cccc3cn[nH]c13)c1cc(Br)ccc1O2
- CC50 at 48 h [5]: 6.31 µM

SMILES: CCOC(=O)N1CCC2(CC1)C[C@H](NC(=O)c1cccc3nc[nH]c13)c1cc(Br)ccc1O2
- CC50 at 48 h [5]: > 10 µM

SMILES: CCOC(=O)N1CCC2(CC1)C[C@H](NC(=O)c1cccc3cn[nH]c13)c1ccccc1O2
- CC50 at 48 h [5]: > 10 µM

SMILES: CCOC(=O)N1CCC2(CC1)C[C@H](NC(=O)c1ccccc1OC)c1cc(Br)ccc1O2
- CC50 at 48 h [5]: > 10 µM

SMILES: CCOC(=O)N1CCC2(CC1)C[C@H](NC(=O)c1cccc3c1NC(=O)C3=O)c1cc(Br)ccc1O2
- CC50 at 48 h [5]: > 10 µM

SMILES: CCOC(=O)N1CCC2(CC1)C[C@H](NC(=O)c1cccc3cn[nH]c13)c1cc(C(=O)O)ccc1O2
- CC50 at 48 h [5]: > 10 µM

SMILES: CCOC(=O)N1CCC2(CC1)C[C@H](NC(=O)c1cccc3[nH]c(=O)[nH]c13)c1cc(Br)ccc1O2
- CC50 at 48 h [5]: > 10 µM

- pIC50 [16]: 8.19
SMILES: CCOC(=O)N1CCC2(CC1)C[C@H](NC(=O)c1cccc3cn[nH]c13)c1nc(OC)ccc1O2
- CC50 at 48 h [5]: > 10 µM

SMILES: CCOC(=O)N1CCC2(CC1)C[C@H](NC(=O)c1cccc3cc[nH]c13)c1cc(Br)ccc1O2
- CC50 at 48 h [5]: > 10 µM

SMILES: CCOC(=O)N1CCC2(CC1)CC(NC(=O)c1cccc3cn[nH]c13)c1ccccc1O2 (racemic)
- CC50 at 48 h [5]: > 10 µM

- F [17]: 21%
- F [19]: 37%
- F [21]: 32%
- AUCt [22]: 8606 ng·h/mL
- F [23]: 24%
- solubility thermodynamic [11]: > 1000 µg/mL
- F [24]: 33%
- F [25]: 31%
- F [26]: 45%
SMILES: CCOC(=O)N1CCC2(CC1)C[C@H](NC(=O)c1cccc3cn(COP(=O)(O)O)nc13)c1cc(Br)ccc1O2.NC(CO)(CO)CO.NC(CO)(CO)CO
- inhibition (INH) (Homo sapiens): 90%
- Activity [18]: Non-Toxic
- Activity [20]: Non-Toxic

- pIC50 [16]: 7.68
SMILES: CCOC(=O)N1CCC2(CC1)C[C@H](NC(=O)c1cccc3cn[nH]c13)c1cc(Br)ncc1O2
- CC50 at 48 h [5]: > 10 µM

- F [27]: 65%
- solubility [28]: > 1000 µg/mL
- F [29]: 91%
- F [30]: 95%
SMILES: CCOC(=O)N1CCC2(CC1)C[C@H](NC(=O)c1cccc3cn(COP(=O)(O)O)nc13)c1cc(Br)ccc1O2

- clearance [9]: 55 mL/min/kg
SMILES: CC(C)(C)OC(=O)N1CCC2(CC1)CC(NC(=O)c1cccc3cc[nH]c13)c1ccccc1O2 (racemic)
- CC50 at 48 h [5]: 5.01 µM

SMILES: CCOC(=O)N1CCC2(CC1)C[C@@H](NC(=O)c1cccc3cn[nH]c13)c1ccccc1O2
- CC50 at 48 h [5]: > 10 µM

SMILES: CCCOC(=O)N1CCC2(CC1)C[C@H](NC(=O)c1cccc3cn[nH]c13)c1cc(Br)ccc1O2
- CC50 at 48 h [5]: > 10 µM

SMILES: CCOC(=O)N1CCC2(CC1)C[C@H](NC(=O)c1cccc3[nH]ncc13)c1cc(Br)ccc1O2
- CC50 at 48 h [5]: > 10 µM

SMILES: CCOC(=O)N1CCC2(CC1)C[C@H](NC(=O)c1cccc3ocnc13)c1cc(Br)ccc1O2
- CC50 at 48 h [5]: > 10 µM

SMILES: CCOC(=O)N1CCC2(CC1)C[C@H](NC(=O)c1cccc3nn[nH]c13)c1cc(Br)ccc1O2
- CC50 at 48 h [5]: > 10 µM

SMILES: CCOC(=O)N1CCC2(CC1)C[C@H](NC(=O)c1cccc3cn[nH]c13)c1cc(OC)ccc1O2
- CC50 at 48 h [5]: > 10 µM

SMILES: CC(C)OC(=O)N1CCC2(CC1)C[C@H](NC(=O)c1cccc3cn[nH]c13)c1cc(Br)ccc1O2
- CC50 at 48 h [5]: > 10 µM

SMILES: CCOC(=O)N1CCC2(CC1)C[C@H](NC(=O)c1ccccc1NC(=O)C(F)(F)F)c1cc(Br)ccc1O2
- CC50 at 48 h [5]: > 10 µM

SMILES: CCOC(=O)N1CCC2(CC1)C[C@H](NC(=O)c1ccccc1O)c1cc(Br)ccc1O2
- CC50 at 48 h [5]: > 10 µM

SMILES: CCOC(=O)N1CCC2(CC1)C[C@H](NC(=O)c1cccc3c1OCO3)c1cc(Br)ccc1O2
- CC50 at 48 h [5]: > 10 µM

SMILES: CCOC(=O)N1CCC2(CC1)C[C@H](NC(=O)c1cccc3c1NC(=O)CO3)c1cc(Br)ccc1O2
- CC50 at 48 h [5]: > 10 µM

SMILES: CCOC(=O)N1CCC2(CC1)C[C@H](NC(=O)c1cccc3cn[nH]c13)c1cc(C#N)ccc1O2
- CC50 at 48 h [5]: > 10 µM

SMILES: CCOC(=O)N1CCC2(CC1)C[C@H](NC(=O)c1cccc3cn[nH]c13)c1cc(C(=O)OC)ccc1O2
- CC50 at 48 h [5]: > 10 µM

SMILES: CCOC(=O)N1CCC2(CC1)CC(NC(=O)c1cccc3cc[nH]c13)c1ccccc1O2 (racemic)
- CC50 at 48 h [5]: > 10 µM

- Activity [15]: inactive
SMILES: NS(=O)(=O)NCCNc1nonc1/C(=N/O)Nc1ccc(F)c(Br)c1

SMILES: CCOC(=O)N1CCC2(CC1)C[C@H](NC(=O)c1cccc3c1NC(=O)C3)c1cc(Br)ccc1O2
- CC50 at 48 h [5]: > 10 µM
